How the values were obtained:
Adj/PC6 = test: In vivo Adj/PC6 tumour test in mice (LD50, ED90, therapeutic index)
Description: The Adj/PC6 testing was carried out as described by P M Goddard et al presented in Sixth NCI-EORTC Symposium on New Drugs in Cancer Therapy 1989, which is a development of the basic method described by T A Connors et al, Chem Biol Interact 5, 415(1972). The in vivo L1210 tests were conducted according to the NCI protocol, Cancer Chemotherapy Reports, Part 3, vol 2, (Sept 1972) except that the animals used were DBA/2 mice and that dosing was carried out on days 1, 5 and 9. The animals were sacrificed when moribund. The compounds were administered parenterally (ip).
In the Adj/PC6 testing, LD50 and ED90 values in mg/kg body weight were determined in the conventional manner. The therapeutic index (TI) was calculated as the ratio of LD50 to ED90, and the results are shown below.
Additional tests were carried out in vivo using the compound of Example 2, against sensitive Adj/PC6 tumour cell lines, and against tumour cell lines resistant to various platinum anti-tumour agents, and a TI (Therapeutic Index) calculated, as described above.

Adj/PC6/cisplatin res = test: In vivo Adj/PC6 cisplatin-resistant tumour test in mice
Description: (§1) The animals were sacrificed when moribund. The compounds were administered parenterally (ip).

Adj/PC6/iproplatin res = test: In vivo Adj/PC6 iproplatin-resistant tumour test in mice
Description: as §1

Adj/PC6/tetraplatin res = test: In vivo Adj/PC6 tetraplatin-resistant tumour test in mice; parameters: key to ED90: --: indicates 90% inhibition not achieved for doses up to LD50
Description: as §1

L1210 = test: In vivo L1210 leukemia, increase in life span; conditions: 9 mg/kg, ip, days 1, 5 and 9, DBA/2 mice
Description: as §1
(§2) The compound of Example 2 was tested against L1210 leukemia, and also against a strain of L1210 resistant to cisplatin, in mice, and the increase in life span (ILS) determined against control mice not being administered any active compound, according to the equation, [formula] where T=days survival of treated mice and
(§3) C=days survival of control mice

Resistant L1210 = test: In vivo cisplatin-resistant L1210 leukemia, increase in life span; conditions: 9 mg/kg, ip, days 1, 5 and 9, DBA/2 mice, L1210 resistant to cisplatin
Description: as §1, §2, §3

HX62 = test: In vitro cytotoxicity (SRB), HX62; type: cell-based, human; conditions: HX62, ovarian cancer, 48 to 96 hours
Description: (§4) Additional in vitro biological testing was conducted using cell lines derived from human carcinomas and maintained at the Institute of Cancer Research, Sutton, England (see C A Hills & colleagues, Br J Cancer 59, 527-34 (1989)). Monolayer cells were trypsinized and seeded in 96-well microtiter plates at a density of 1×10^4 cells/well in 200 μl of growth medium. Cells were incubated overnight and test compounds were added to triplicate wells at various concentrations for a total of 48 to 96 hours. For toxicity analysis after drug exposure, the cells were fixed with trichloroacetic acid and stained for cellular protein content by incubation for 30 minutes with 0.4% (wt/vol) sulforodamine B (SRB) dissolved in 1% acetic acid. The unbound dye was removed by 1% acetic acid washes, and the bound dye was extracted with 10 mM Tris buffer. The amount of dye in solution was quantified by absorbance at 564 nm.
(§5) In the Tables A and B below, all the cells are ovarian cancer cells with the exception of GCT27^R /GCT27 which are testicular. Table A gives IC50 values in μM; Table B gives Resistance Factors as a ratio of IC50 for a cell line bred to be resistant to cisplatin against IC50 for the nonresistant cell line.

SKOV-3 = test: In vitro cytotoxicity (SRB), SKOV-3; type: cell-based, human; conditions: SKOV-3, ovarian cancer, 48 to 96 hours
Description: as §4, §5

PXN/94 = test: In vitro cytotoxicity (SRB), PXN/94; type: cell-based, human; conditions: PXN/94, ovarian cancer, 48 to 96 hours
Description: as §4, §5

41M ® = test: In vitro cytotoxicity (SRB), 41M ®; type: cell-based, human; conditions: 41M ® (cisplatin resistant), ovarian cancer, 48 to 96 hours
Description: as §4, §5

41M = test: In vitro cytotoxicity (SRB), 41M; type: cell-based, human; conditions: ovarian cancer, 48 to 96 hours
Description: as §4, §5

CHI ® = test: In vitro cytotoxicity (SRB), CHI ®; type: cell-based, human; conditions: CHI ® (cisplatin resistant), ovarian cancer, 48 to 96 hours
Description: as §4, §5

CHI = test: In vitro cytotoxicity (SRB), CHI; type: cell-based, human; conditions: ovarian cancer, 48 to 96 hours
Description: as §4, §5

41M ®/41M = test: Resistance factor 41M ®/41M; type: cell-based, human; conditions: ratio of IC50 resistant to nonresistant line, ovarian
Description: as §4, §5

CHI ®/CHI = test: Resistance factor CHI ®/CHI; type: cell-based, human; conditions: ratio of IC50 resistant to nonresistant line, ovarian
Description: as §4, §5

A2780 ®/A2780 = test: Resistance factor A2780 ®/A2780; type: cell-based, human; conditions: ratio of IC50 resistant to nonresistant line, ovarian
Description: as §4, §5

GCT27 ®/GCT27 = test: Resistance factor GCT27 ®/GCT27; type: cell-based, human; conditions: ratio of IC50 resistant to nonresistant line, testicular
Description: as §4, §5

OVCAR-3 [1] = test: In vivo OVCAR-3 ovarian carcinoma xenograft; parameters: species or system mice; conditions: for Growth Delay: delay in doubling of tumour volume vs control
Description: The "growth delay" was also measured which represents the delay in achieving a doubling of the tumour volume for the treated group compared to the control group.

OVCAR-3 [2] = test: In vivo OVCAR-3 ovarian carcinoma xenograft; parameters: species or system mice; conditions: tumour volume vs control
[3] = Adj/PC6, comparison with cis-isomer

[NH2][Pt]([OH])([OH])([Cl])([Cl])[NH]C1CCCCC1 [EX 2, trans-[PtCl2 (OH)2 (NH3)(c-C6H11 NH2)]]
ED90 (Adj/PC6; [3]): 0.76 mg/kg
TI (Therapeutic Index) (Adj/PC6; [3]): 11.6
ED90 (Adj/PC6; Adj/PC6 testing, mice, ip): 0.76 mg/kg body weight
LD50 (Adj/PC6; Adj/PC6 testing, mice, ip): 8.8 mg/kg body weight
TI (therapeutic index, ratio of LD50 to ED90) (Adj/PC6; Adj/PC6 testing, mice, ip): 11.6
activity compared with the cis isomer (Adj/PC6; sensitive and platinum-resistant Adj/PC6 tumours): possesses activity, and a different spectrum of activity to the cis isomer
ED90 (Adj/PC6/cisplatin res): 5.6 mg/kg
LD50 (Adj/PC6/cisplatin res): 10.5 mg/kg
TI (Therapeutic Index) (Adj/PC6/cisplatin res): 1.88
ED90 (Adj/PC6/iproplatin res): 2.6 mg/kg
LD50 (Adj/PC6/iproplatin res): 8.8 mg/kg
TI (Therapeutic Index) (Adj/PC6/iproplatin res): 3.4
ED90 (Adj/PC6/tetraplatin res): --
LD50 (Adj/PC6/tetraplatin res): 8.8 mg/kg
ILS (increase in life span) (L1210): 77%
ILS (increase in life span) (Resistant L1210): 39%
IC50 (HX62): 5900 nM
IC50 (SKOV-3): 8800 nM
IC50 (PXN/94): 3700 nM
IC50 (41M ®): 1800 nM
IC50 (41M): 1500 nM
IC50 (CHI ®): 2200 nM
IC50 (CHI): 1400 nM
Resistance Factor 41M ®/41M (41M ®/41M): 1.2
Resistance Factor CHI ®/CHI (CHI ®/CHI): 1.6
Resistance Factor A2780 ®/A2780 (A2780 ®/A2780): 7.1
Resistance Factor GCT27 ®/GCT27 (GCT27 ®/GCT27): 1.8
Growth Delay (OVCAR-3 [1]; 1 mg/kg): 0.9 days
Growth Delay (OVCAR-3 [1]; 2 mg/kg): 12.0 days
Growth Delay (OVCAR-3 [1]; 4 mg/kg): 16.8 days
dose-related effect (OVCAR-3 xenograft) (OVCAR-3 [1]; increasing doses): clear dose-related effect
T/C (day 28) (OVCAR-3 [2]; 1 mg/kg): 0.80
T/C (day 28) (OVCAR-3 [2]; 2 mg/kg): 0.64
T/C (day 28) (OVCAR-3 [2]; 4 mg/kg): 0.48

Reference: patent US5194645A, “Trans-Pt (IV) compounds” (Johnson Matthey Public Limited Company, priority 1991, dated 1993)
